Read-outs that look alike come from different tables or passages of the source.

One experiment has as its target EGFR Del19/C797S (Homo sapiens, UniProt P00533, C797S/DEL746-750). In words: Biochemical EGFR kinase inhibition assay (Lance Ultra TR-FRET), double mutant del19/C797S. A digest of the protocol: (§1)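 Kinase activity is measured by TR-FRET phosphopeptide detection. Compounds span 0.003 μM to 10 μM; the 1 h reaction at room temperature is quenched with EDTA, then labelled antibody (2 nM) is incubated 60 min before reading.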

For a further experiment, the target named is EGFR L858R/T790M/C797S (Homo sapiens, UniProt P00533, C797S/L858R/T790M). Description: Biochemical EGFR kinase inhibition assay (Lance Ultra TR-FRET), triple mutant L858R/T790M/C797S. A digest of the protocol:
as §1

In another experiment the target is EGFR Del19/T790M/C797S (Homo sapiens, UniProt P00533, C797S/DEL746-750/T790M). In words: Biochemical EGFR kinase inhibition assay (Lance Ultra TR-FRET), triple mutant del19/T790M/C797S. The essentials: as §1
Chain of EGFR Del19/T790M/C797S (P00533 with tags, fused parts or gaps DEL746-750/T790M/C797S): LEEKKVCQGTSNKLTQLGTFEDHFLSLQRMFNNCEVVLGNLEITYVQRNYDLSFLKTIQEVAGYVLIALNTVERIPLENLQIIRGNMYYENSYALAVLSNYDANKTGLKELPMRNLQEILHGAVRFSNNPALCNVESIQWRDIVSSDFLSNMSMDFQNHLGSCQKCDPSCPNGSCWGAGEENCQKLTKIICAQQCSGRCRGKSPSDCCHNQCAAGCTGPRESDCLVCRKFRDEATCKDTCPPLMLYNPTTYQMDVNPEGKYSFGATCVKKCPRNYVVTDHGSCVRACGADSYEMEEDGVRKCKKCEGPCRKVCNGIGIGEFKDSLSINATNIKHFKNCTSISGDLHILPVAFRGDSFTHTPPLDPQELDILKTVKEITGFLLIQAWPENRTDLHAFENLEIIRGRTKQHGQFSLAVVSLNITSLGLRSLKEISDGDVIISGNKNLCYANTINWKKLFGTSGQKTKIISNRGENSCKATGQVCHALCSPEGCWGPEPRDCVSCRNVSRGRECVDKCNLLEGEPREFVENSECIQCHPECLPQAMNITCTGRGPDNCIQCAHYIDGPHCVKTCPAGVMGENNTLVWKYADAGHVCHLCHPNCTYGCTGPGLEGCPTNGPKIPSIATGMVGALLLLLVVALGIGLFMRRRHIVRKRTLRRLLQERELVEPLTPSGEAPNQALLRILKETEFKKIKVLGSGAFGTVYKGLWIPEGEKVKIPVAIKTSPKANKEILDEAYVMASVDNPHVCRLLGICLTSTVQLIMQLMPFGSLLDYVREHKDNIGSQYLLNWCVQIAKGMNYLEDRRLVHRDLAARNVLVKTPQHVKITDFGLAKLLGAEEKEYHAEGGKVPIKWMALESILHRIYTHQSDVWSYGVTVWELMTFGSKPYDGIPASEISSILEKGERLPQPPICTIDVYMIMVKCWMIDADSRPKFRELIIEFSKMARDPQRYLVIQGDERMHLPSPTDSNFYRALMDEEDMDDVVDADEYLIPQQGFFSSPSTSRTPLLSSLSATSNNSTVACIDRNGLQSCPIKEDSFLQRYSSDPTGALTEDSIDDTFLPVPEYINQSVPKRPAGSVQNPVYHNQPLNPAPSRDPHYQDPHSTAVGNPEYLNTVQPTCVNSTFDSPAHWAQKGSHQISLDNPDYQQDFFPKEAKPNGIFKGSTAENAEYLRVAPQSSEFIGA
A further experiment deals with EGFR L858R/C797S (Homo sapiens, UniProt P00533, C797S/L858R). Description: Biochemical EGFR kinase inhibition assay (Lance Ultra TR-FRET), double mutant L858R/C797S. The essentials: as §1
Chain of EGFR L858R/C797S (P00533 25-1210 C797S/L858R): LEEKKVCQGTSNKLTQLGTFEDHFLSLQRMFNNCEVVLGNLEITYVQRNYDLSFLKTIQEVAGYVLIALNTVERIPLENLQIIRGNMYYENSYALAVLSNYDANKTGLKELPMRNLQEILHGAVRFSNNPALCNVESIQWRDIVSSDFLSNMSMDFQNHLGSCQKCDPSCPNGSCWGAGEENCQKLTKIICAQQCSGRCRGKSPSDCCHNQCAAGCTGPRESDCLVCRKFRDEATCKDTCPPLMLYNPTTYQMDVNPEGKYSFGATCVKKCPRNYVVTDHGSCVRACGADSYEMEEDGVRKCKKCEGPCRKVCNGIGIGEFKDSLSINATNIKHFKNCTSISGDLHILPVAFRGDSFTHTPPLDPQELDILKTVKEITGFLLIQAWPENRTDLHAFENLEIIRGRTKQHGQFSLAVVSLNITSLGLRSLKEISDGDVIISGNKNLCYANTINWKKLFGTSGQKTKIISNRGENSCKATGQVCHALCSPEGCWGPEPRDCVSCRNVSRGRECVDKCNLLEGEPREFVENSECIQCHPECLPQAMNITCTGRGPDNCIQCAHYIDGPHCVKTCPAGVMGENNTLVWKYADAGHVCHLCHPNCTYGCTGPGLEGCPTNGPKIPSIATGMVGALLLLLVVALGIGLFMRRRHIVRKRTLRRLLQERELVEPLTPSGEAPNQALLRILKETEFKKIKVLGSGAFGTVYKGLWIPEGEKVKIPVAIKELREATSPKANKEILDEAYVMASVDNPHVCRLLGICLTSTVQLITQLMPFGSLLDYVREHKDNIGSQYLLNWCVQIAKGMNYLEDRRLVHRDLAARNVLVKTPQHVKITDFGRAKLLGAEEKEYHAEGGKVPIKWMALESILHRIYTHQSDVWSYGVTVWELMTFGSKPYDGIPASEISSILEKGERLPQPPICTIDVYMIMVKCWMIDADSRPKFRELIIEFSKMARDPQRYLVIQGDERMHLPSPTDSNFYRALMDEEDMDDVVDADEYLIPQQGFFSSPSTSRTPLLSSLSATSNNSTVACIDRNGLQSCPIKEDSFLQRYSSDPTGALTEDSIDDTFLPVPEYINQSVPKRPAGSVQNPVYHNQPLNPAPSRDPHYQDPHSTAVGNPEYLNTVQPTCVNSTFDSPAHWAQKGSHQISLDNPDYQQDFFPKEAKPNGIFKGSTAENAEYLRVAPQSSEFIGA
The target of the next experiment is EGFR wildtype (WT) (Homo sapiens, UniProt P00533). In words: Biochemical EGFR kinase inhibition assay (Lance Ultra TR-FRET), wildtype. The essentials:
as §1

[1] abbreviates: ATP at Km, read-out: IC50 Del19/C797S (nM), Km ATP.
[2] abbreviates: IC50 Del19/C797S (nM), 100 μM ATP.
[3] abbreviates: ATP at Km, read-out: IC50 L858R/T790M/C797S (nM), Km ATP.
Where [4] appears, read: IC50 L858R/T790M/C797S (nM), 100 μM ATP.
The mark [5] stands for this setting: ATP at Km, read-out: IC50 Del19/T790M/C797S (nM), Km ATP.
Where [6] appears, read: IC50 Del19/T790M/C797S (nM), 100 μM ATP.
Where [7] appears, read: ATP at Km, read-out: IC50 L858R/C797S (nM), Km ATP.
Setting [8] is: IC50 L858R/C797S (nM), 100 μM ATP.
Setting [9] is: ATP at Km, read-out: IC50 WT (nM), Km ATP.
Setting [10] is: Km ATP, read-out: IC50 Del19/C797S (nM) Km ATP.
[11] abbreviates: Km ATP, read-out: IC50 L858R/T790M/C797S (nM) Km ATP.
Where [12] appears, read: Km ATP, read-out: IC50 Del19/T790M/C797S (nM) Km ATP.
The mark [13] stands for this setting: Km ATP, read-out: IC50 L858R/C797S (nM) Km ATP.
The mark [14] stands for this setting: Km ATP, read-out: IC50 WT (nM) Km ATP.

Chain of EGFR wildtype (WT) (P00533 25-1210): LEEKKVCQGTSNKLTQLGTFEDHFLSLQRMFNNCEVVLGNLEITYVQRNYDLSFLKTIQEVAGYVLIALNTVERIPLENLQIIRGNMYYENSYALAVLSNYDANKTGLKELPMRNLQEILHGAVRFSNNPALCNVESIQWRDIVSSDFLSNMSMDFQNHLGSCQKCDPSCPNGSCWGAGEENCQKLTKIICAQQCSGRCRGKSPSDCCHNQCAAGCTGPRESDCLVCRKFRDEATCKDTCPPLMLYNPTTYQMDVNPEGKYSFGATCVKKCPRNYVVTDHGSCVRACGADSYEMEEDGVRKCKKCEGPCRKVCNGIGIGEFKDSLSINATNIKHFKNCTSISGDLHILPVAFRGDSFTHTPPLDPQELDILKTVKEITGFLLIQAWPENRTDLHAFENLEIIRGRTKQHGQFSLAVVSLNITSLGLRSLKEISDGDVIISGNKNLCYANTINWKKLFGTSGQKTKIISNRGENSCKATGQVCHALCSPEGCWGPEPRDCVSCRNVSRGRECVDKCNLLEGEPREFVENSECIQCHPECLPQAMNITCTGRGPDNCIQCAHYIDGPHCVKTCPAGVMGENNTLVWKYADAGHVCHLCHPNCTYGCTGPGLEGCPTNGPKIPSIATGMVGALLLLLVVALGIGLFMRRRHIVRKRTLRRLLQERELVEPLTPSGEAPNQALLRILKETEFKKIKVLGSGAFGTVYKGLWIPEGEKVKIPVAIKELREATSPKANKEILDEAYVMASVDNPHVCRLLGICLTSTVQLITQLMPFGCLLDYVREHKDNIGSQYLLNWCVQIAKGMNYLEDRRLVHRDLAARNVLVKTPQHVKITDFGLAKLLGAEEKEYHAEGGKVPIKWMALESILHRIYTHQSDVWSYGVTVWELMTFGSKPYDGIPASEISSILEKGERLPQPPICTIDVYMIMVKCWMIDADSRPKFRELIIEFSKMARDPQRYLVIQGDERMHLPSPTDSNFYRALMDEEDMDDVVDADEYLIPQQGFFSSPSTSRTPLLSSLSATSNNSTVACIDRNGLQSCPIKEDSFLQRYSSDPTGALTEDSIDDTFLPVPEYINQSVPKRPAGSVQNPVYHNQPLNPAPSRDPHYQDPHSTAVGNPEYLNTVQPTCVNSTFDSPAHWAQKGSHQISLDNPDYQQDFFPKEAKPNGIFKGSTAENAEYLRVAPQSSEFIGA
Chain of EGFR Del19/C797S (P00533 with tags, fused parts or gaps DEL746-750/C797S): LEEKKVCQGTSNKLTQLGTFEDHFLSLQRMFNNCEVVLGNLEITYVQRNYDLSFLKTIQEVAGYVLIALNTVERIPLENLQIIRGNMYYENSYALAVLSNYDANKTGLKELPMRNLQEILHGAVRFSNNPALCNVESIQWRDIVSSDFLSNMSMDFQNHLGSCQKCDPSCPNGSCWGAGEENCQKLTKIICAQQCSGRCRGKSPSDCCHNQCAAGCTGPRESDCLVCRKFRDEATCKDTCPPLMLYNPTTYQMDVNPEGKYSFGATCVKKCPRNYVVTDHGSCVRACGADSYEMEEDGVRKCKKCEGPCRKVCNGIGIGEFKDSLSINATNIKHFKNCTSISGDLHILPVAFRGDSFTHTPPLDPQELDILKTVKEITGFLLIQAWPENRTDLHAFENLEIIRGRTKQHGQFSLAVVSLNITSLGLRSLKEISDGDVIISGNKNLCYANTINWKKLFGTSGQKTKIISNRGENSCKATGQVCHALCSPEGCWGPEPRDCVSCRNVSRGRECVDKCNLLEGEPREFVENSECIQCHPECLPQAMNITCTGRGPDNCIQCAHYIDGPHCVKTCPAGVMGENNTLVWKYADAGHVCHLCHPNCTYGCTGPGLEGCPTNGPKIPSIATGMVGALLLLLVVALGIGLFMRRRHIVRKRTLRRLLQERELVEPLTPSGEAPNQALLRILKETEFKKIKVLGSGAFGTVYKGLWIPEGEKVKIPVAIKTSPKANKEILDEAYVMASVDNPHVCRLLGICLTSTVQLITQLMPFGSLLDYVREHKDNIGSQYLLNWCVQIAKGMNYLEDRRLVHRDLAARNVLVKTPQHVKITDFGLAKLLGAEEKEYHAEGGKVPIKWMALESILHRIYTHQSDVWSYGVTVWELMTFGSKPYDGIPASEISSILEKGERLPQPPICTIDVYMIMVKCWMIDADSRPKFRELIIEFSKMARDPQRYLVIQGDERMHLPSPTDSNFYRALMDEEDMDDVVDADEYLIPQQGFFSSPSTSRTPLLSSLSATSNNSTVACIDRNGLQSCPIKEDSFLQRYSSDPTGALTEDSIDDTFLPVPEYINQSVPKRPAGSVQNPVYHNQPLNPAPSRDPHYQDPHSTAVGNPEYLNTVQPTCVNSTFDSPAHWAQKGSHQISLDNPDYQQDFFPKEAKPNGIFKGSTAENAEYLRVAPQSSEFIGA

As for `CC(O)C1CCN(c2cc(Nc3ccnc(-c4cnn(S(=O)(=O)C5CC5)c4)n3)ncc2C#Cc2cnn(C(F)(F)F)c2)CC1` (stereo not shown) [Example 328, 1-(1-(2-((2-(1-(Cyclopropylsulfonyl)-1H-pyrazol-4-yl)pyrimidin-4-yl)amino)-5-((1-(trifluoromethyl)-1H-pyrazol-4-yl)ethynyl)pyridin-4-yl)piperidin-4-yl)ethan-1-ol], the IC50 on EGFR Del19/C797S (setting [1]) was found to be 36.6 nM; against EGFR Del19/C797S (setting [2]), 648 nM; at EGFR L858R/T790M/C797S (setting [3]), 1 nM; at EGFR L858R/T790M/C797S (setting [4]), 22.7 nM; on EGFR Del19/T790M/C797S (setting [5]), 5.3 nM; at EGFR Del19/T790M/C797S (setting [6]) it was 3.1 nM. For the same molecule, the IC50 at EGFR L858R/C797S (setting [7]) is 25.8 nM; at EGFR L858R/C797S (setting [8]), 47.4 nM; on EGFR wildtype (WT) (setting [9]), 162 nM; against EGFR wildtype (WT) (IC50 WT (nM), 100 μM ATP), greater than 10000 nM.

As for `Cn1cc(C#Cc2cnc(Nc3ccnc(-c4cnn(S(=O)(=O)C5CC5)c4)n3)cc2N2CCC(C)(CO)CC2)cn1` [Example 12, (1-(2-((2-(1-(Cyclopropylsulfonyl)-1H-pyrazol-4-yl)pyrimidin-4-yl)amino)-5-((1-methyl-1H-pyrazol-4-yl)ethynyl)pyridin-4-yl)-4-methylpiperidin-4-yl)methanol], the IC50 was 1.9 nM against EGFR Del19/C797S (setting [2]); 1.1 nM on EGFR Del19/C797S (setting [10]); 0.6 nM against EGFR L858R/T790M/C797S (setting [4]); 0.3 nM at EGFR L858R/T790M/C797S (setting [11]); 0.8 nM on EGFR Del19/T790M/C797S (setting [6]); 0.7 nM at EGFR Del19/T790M/C797S (setting [12]). The IC50 against EGFR L858R/C797S (setting [8]) came out at 5.1 nM; at EGFR L858R/C797S (setting [13]) it was 0.7 nM; against EGFR wildtype (WT) (IC50 WT (nM), 100 μM ATP), 1100 nM; at EGFR wildtype (WT) (setting [14]), 6 nM.

For the molecule `C[C@H](Nc1cc(Nc2ccnc(-c3cnn(S(=O)(=O)C4CC4)c3)n2)ncc1C#Cc1cnn(C)c1)C(C)(C)O` [Example 5, (S)-3-((2-((2-(1-(Cyclopropylsulfonyl)-1H-pyrazol-4-yl)pyrimidin-4-yl)amino)-5-((1-methyl-1H-pyrazol-4-yl)ethynyl)pyridin-4-yl)amino)-2-methylbutan-2-ol], the IC50 against EGFR Del19/C797S (setting [2]) was 404 nM; at EGFR L858R/T790M/C797S (setting [4]), 44.3 nM; against EGFR Del19/T790M/C797S (setting [6]) it was 3.8 nM; at EGFR L858R/C797S (setting [8]), 418 nM; against EGFR wildtype (WT) (IC50 WT (nM), 100 μM ATP), greater than 10000 nM.

`CC1(CO)CCN(c2cc(Nc3ccnc(-c4cnn(S(=O)(=O)C5CC5)c4)n3)ncc2C#CCNC(=O)C(F)(F)F)CC1` [Example 288, N-(3-(6-((2-(1-(Cyclopropylsulfonyl)-1H-pyrazol-4-yl)pyrimidin-4-yl)amino)-4-(4-(hydroxymethyl)-4-methylpiperidin-1-yl)pyridin-3-yl)prop-2-yn-1-yl)-2,2,2-trifluoroacetamide]: the IC50 worked out at 3.6 nM against EGFR Del19/C797S (setting [2]); 0.2 nM on EGFR L858R/T790M/C797S (setting [4]); 0.2 nM on EGFR Del19/T790M/C797S (setting [6]); 21.6 nM against EGFR L858R/C797S (setting [8]); 7820 nM against EGFR wildtype (WT) (IC50 WT (nM), 100 μM ATP).

On to `CN(C)CCn1cc(C#Cc2cnc(Nc3ccnc(-c4cnn(S(=O)(=O)C5CC5)c4)n3)cc2N2CCC(F)(CO)CC2)cn1` [Example 117, (1-(2-((2-(1-(Cyclopropylsulfonyl)-1H-pyrazol-4-yl)pyrimidin-4-yl)amino)-5-((1-(2-(dimethylamino)ethyl)-1H-pyrazol-4-yl)ethynyl)pyridin-4-yl)-4-fluoropiperidin-4-yl)methanol], for which the IC50 against EGFR Del19/C797S (setting [2]) stood at 0.7 nM; at EGFR Del19/C797S (setting [10]) it was 0.4 nM; at EGFR L858R/T790M/C797S (setting [4]), 0.3 nM; at EGFR L858R/T790M/C797S (setting [11]), 0.2 nM; on EGFR Del19/T790M/C797S (setting [6]) it was 0.4 nM; at EGFR Del19/T790M/C797S (setting [12]) it was 0.3 nM. The IC50 against EGFR L858R/C797S (setting [8]) turned out to be 3.4 nM; at EGFR L858R/C797S (setting [13]) it was 0.3 nM; at EGFR wildtype (WT) (IC50 WT (nM), 100 μM ATP), 1020 nM; at EGFR wildtype (WT) (setting [14]) it was 3.7 nM.

Turning to `Cn1ncc(C#Cc2cnc(Nc3ccnc(-c4cnn(S(=O)(=O)C5CC5)c4)n3)cc2N2CCC(O)CC2)c1C1CC1` [Example 86, 1-(5-((5-Cyclopropyl-1-methyl-1H-pyrazol-4-yl)ethynyl)-2-((2-(1-(cyclopropylsulfonyl)-1H-pyrazol-4-yl)pyrimidin-4-yl)amino)pyridin-4-yl)piperidin-4-ol], the IC50 against EGFR Del19/C797S (setting [2]) is 23.9 nM; on EGFR L858R/T790M/C797S (setting [4]), 6.4 nM; against EGFR Del19/T790M/C797S (setting [6]), 1.4 nM; on EGFR L858R/C797S (setting [8]), 73.9 nM; at EGFR wildtype (WT) (IC50 WT (nM), 100 μM ATP), greater than 10000 nM.

For the molecule `O=S(=O)(C1CC1)n1cc(-c2nccc(Nc3cc(NC4CCC(O)CC4)c(C#CC4(O)CCOC4)cn3)n2)cn1` (stereo not shown) [Example 356, 3-((6-((2-(1-(Cyclopropylsulfonyl)-1H-pyrazol-4-yl)pyrimidin-4-yl)amino)-4-(((1 s, 4s)-4-hydroxycyclohexyl)amino)pyridin-3-yl)ethynyl)tetrahydrofuran-3-ol], the IC50 against EGFR Del19/C797S (setting [2]) amounted to 0.9 nM; at EGFR Del19/C797S (Km ATP, read-out: IC50 Del19/C797S (nM), Km ATP) it was 0.6 nM; against EGFR L858R/T790M/C797S (setting [4]), 0.3 nM; on EGFR L858R/T790M/C797S (Km ATP, read-out: IC50 L858R/T790M/C797S (nM), Km ATP) it was 0.1 nM; at EGFR Del19/T790M/C797S (setting [6]) it was 0.2 nM; at EGFR Del19/T790M/C797S (Km ATP, read-out: IC50 Del19/T790M/C797S (nM), Km ATP), 0.2 nM. Moreover, the IC50 on EGFR L858R/C797S (setting [8]) came out at 24.5 nM; on EGFR L858R/C797S (Km ATP, read-out: IC50 L858R/C797S (nM), Km ATP), 2 nM; on EGFR wildtype (WT) (IC50 WT (nM), 100 μM ATP), 5310 nM; at EGFR wildtype (WT) (Km ATP, read-out: IC50 WT (nM), Km ATP), 20.1 nM.

Regarding `Cn1ccc(C#Cc2cnc(Nc3ccnc(-c4cnn(S(=O)(=O)C5CC5)c4)n3)cc2N[C@H]2CC[C@@H](O)CC2)n1` [Example 106, (1s,4s)-4-((2-((2-(1-(Cyclopropylsulfonyl)-1H-pyrazol-4-yl)pyrimidin-4-yl)amino)-5-((1-methyl-1H-pyrazol-3-yl)ethynyl)pyridin-4-yl)amino)cyclohexan-1-ol], the IC50 was determined as 15.1 nM against EGFR Del19/C797S (setting [2]); 12.5 nM at EGFR Del19/C797S (setting [10]); 1.6 nM against EGFR L858R/T790M/C797S (setting [4]); 0.6 nM at EGFR L858R/T790M/C797S (setting [11]); 1.1 nM at EGFR Del19/T790M/C797S (setting [6]); 1 nM at EGFR Del19/T790M/C797S (setting [12]). For the same molecule, the IC50 against EGFR L858R/C797S (setting [8]) is 274 nM; at EGFR L858R/C797S (setting [13]), 6.1 nM; against EGFR wildtype (WT) (IC50 WT (nM), 100 μM ATP), greater than 10000 nM; on EGFR wildtype (WT) (setting [14]), 95.5 nM.

Turning to `CN1CCC(C#Cc2cnc(Nc3ccnc(-c4cnn(S(=O)(=O)C5CC5)c4)n3)cc2N2CCC(C)(CO)CC2)C1` (stereo not shown) [Example 180, (1-(2-((2-(1-(Cyclopropylsulfonyl)-1H-pyrazol-4-yl)pyrimidin-4-yl)amino)-5-((1-methylpyrrolidin-3-yl)ethynyl)pyridin-4-yl)-4-methylpiperidin-4-yl)methanol], the IC50 was found to be 0.5 nM at EGFR Del19/C797S (setting [1]); 0.3 nM at EGFR Del19/C797S (setting [2]); 0.1 nM at EGFR L858R/T790M/C797S (setting [3]); 0.1 nM against EGFR L858R/T790M/C797S (setting [4]); 0.2 nM on EGFR Del19/T790M/C797S (setting [5]); 0.1 nM at EGFR Del19/T790M/C797S (setting [6]). The IC50 at EGFR L858R/C797S (setting [7]) was determined as 0.4 nM; on EGFR L858R/C797S (setting [8]) it was 2.7 nM; on EGFR wildtype (WT) (setting [9]), 2.8 nM; on EGFR wildtype (WT) (IC50 WT (nM), 100 μM ATP), 1100 nM.

With `CC1(CO)CCN(c2cc(Nc3ccnc(-c4cnn(S(=O)(=O)C5CC5)c4)n3)ncc2C#Cc2ccc(CN3CCOCC3)cc2)CC1` [Example 253, (1-(2-((2-(1-(Cyclopropylsulfonyl)-1H-pyrazol-4-yl)pyrimidin-4-yl)amino)-5-((4-(morpholinomethyl)phenyl)ethynyl)pyridin-4-yl)-4-methylpiperidin-4-yl)methanol], the IC50 amounted to 4.2 nM on EGFR Del19/C797S (setting [1]); 7.1 nM at EGFR Del19/C797S (setting [2]); 3.1 nM on EGFR L858R/T790M/C797S (setting [3]); 4.4 nM at EGFR L858R/T790M/C797S (setting [4]); 5.3 nM on EGFR Del19/T790M/C797S (setting [5]); 3.3 nM at EGFR Del19/T790M/C797S (setting [6]). Besides, the IC50 on EGFR L858R/C797S (setting [7]) is 9.8 nM; on EGFR L858R/C797S (setting [8]), 81.2 nM; at EGFR wildtype (WT) (setting [9]) it was 23.9 nM; at EGFR wildtype (WT) (IC50 WT (nM), 100 μM ATP) it was greater than 10000 nM.
